We go through 5 compounds from patent US7109043B2, “Fluorescent probe for magnesium ion determination” (Japan Science and Technology Corporation, priority 2000, dated 2006).

Entries after “also recorded” stand apart in the source; their conditions may differ. Read-outs that look alike come from different tables or passages of the source.

For assay [1] the following is noted: known commercial magnesium probes, literature values for comparison; cited from earlier work.
For assay [2] the following is noted: known commercial magnesium probes, literature values for comparison; cited from earlier work. This is another data set of the same source.
Assay [3] is described as follows: Binding constant to magnesium ion by fluorescence titration (Benesi-Hildebrand plot). The note with it: for KMg/KCa (selectivity to magnesium ion): ratio of binding constant to magnesium ion to binding constant to calcium ion; for KMg (binding constant to Mg^2+): probe 10 μM in HEPES 10.0 mM, KCl 120.0 mM, NaCl 20.0 mM, EGTA 2.0 mM, pH 7.20, excitation 448 nm, fluorescence 505 nm. The procedure:
(§1) Selectivities to magnesium ion (i.e., the ratio of binding constant to magnesium ion to the binding constant to calcium ion) of KMG-20 synthesized in Example 1 and KMG-27 synthesized in Example 4 were measured. More particularly, this measurement was carried out as follows:
(§2) The fluorescent indicator was dissolved in a solvent (HEPES 10.0 mM, KCl 120.0 mM, NaCl 20.0 mM, EGTA 2.0 mM, pH 7.20) to a concentration of 10 μM. To this solution, a metal salt solution (MgCl2, CaCl2) in the above-described solvent was added to a concentration of 0 to 500 mM, and fluorescence spectrum was measured.
(§3) The conditions of the fluorophotometer (Hitachi F4500) were as follows: excitation wavelength: 448 nm, slit width: excitation side: 2.5 nm, fluorescence side 2.5 nm, photomultiplier voltage: 700V, scanning rate: 240 nm/min.
The fluorescence intensities at the maximum fluorescence wavelength (505 nm) when the concentration of the metal ion was changed were measured, and the binding constants to Mg^2+ and Ca^2+ were calculated by using Benesi-Hildebrand plot method (J. Am. Chem. Soc. 71, 2703 (1949)).
For comparison, the binding constants of known magnesium probes commercially available from Molecular Probes, that is, mag-fura-2 (Proc. Natl. Acad. Sci. USA, 86, 2981 (1989)), mag-indo-1(J. Physiol, 475, 319 (1994)), mag-fura-5 (J. Physiol, 475, 319 (1994)) and Magnesium Green (J. Biol. Chem. 270, 18975 (1995)) are also shown in Table 1.

The test system of assay [4] is bovine vascular endothelial cells. As to the kind of experiment: Measurement of magnesium ions in cells using fluorescent probe (No. 1), fluorescence microscopy. The format is cell-based. The procedure: Magnesium ions in cells were measured using the fluorescent probe KMG-20 synthesized in Example 1. Since the fluorescent probe KMG-20 has an acetoxymethyl group, it has a high lipid solubility and is easy to transfer from the culture medium to the cell membrane. In the vicinity of the cell membrane, the acetoxymethyl group is removed by an ester hydrolysis enzyme in the cell and becomes again a water-soluble compound having a carboxyl group, so that it is diffused into the cytoplasm. Upon forming a complex with a magnesium ion, the fluorescence of KMG-20 is increased.
A solution of the fluorescent probe KMG-20 in DMSO (1.0 ml) was added to Hanks-HEPES buffer so as to attain a final concentration of 10.0 μM, and the mixture was subjected to ultrasonication. The culture medium in which bovine vascular endothelial cells had been cultured at 37° C. on a petri dish was replaced with the above-described KMG-20 solution, and the cells were incubated at 37° C. for 30 minutes. […] The excitation wavelength was 440 nm and the detection wavelength was 500–530 nm. For comparison, the cells before the treatment with the fluorescence probe were also observed with the fluorescence microscope.
(§4) To clarify the behavior of free magnesium ions in the cells, 5 μM carbonylcyanoid p-(trifluoromethoxy)phenylhydrazone (FCCP) was added. As a result, the entire cell was brightened. The change in the fluorescence intensity with time after the addition of FCCP was observed. […] It is known that magnesium ion usually binds to an oxygen atom in the phosphoric acid ester moiety of a phosphorylated substrate such as ATP, ADP, phosphorylated saccharide, nucleic acid or the like to neutralize the electric charge thereof, and serves as an acid catalyst, and that enzymes whose corresponding substrates are phosphoric acid ester compounds require magnesium ion as a co-factor. Since FCCP serves as a respiration inhibitor of mitochondria in the cells, the ATP activity in the cells is decreased and so the free magnesium ion level is increased, it is thought that KMG-20 formed a complex with magnesium ion, thereby increasing the fluorescence intensity.
(§5) Further, 10 μM acetylcholine was added to the cells so as to compulsively increase the calcium level in the cells.

Assay [5] can be described thus: Binding constant to calcium ion by fluorescence titration (Benesi-Hildebrand plot). The note with it: probe 10 μM in HEPES 10.0 mM, KCl 120.0 mM, NaCl 20.0 mM, EGTA 2.0 mM, pH 7.20; excitation 448 nm, fluorescence 505 nm. How it is done:
as §1, §2, §3
The fluorescence intensities at the maximum fluorescence wavelength (505 nm) when the concentration of the metal ion was changed were measured, and the binding constants to Mg^2+ and Ca^2+ were calculated by using Benesi-Hildebrand plot method (J. Am. Chem. Soc. 71, 2703 (1949)). […]

The subject of another assay is PC-12 cells. Kind of assay: Measurement of magnesium ions in cells using fluorescent probe (No. 2), fluorescence microscopy. The format is cell-based, rat. The settings on record: for Change in fluorescence intensity after addition of FCCP: 5.0 μM FCCP (raises free magnesium ion level); for Staining / dispersion of the probe in cells: excitation 440 nm, detection 500–530 nm. The procedure: Behavior of magnesium ions in cells were measured using the fluorescent probe synthesized in Example 4.
Since this fluorescent probe KMG-20 has an acetoxymethyl group, it has a high lipid solubility and is easy to transfer from the culture medium to the cell membrane. In the vicinity of the cell membrane, the acetoxymethyl group is removed by an ester hydrolysis enzyme in the cell and becomes again a water-soluble compound having a carboxyl group, so that it is diffused into the cytoplasm.
A solution of the fluorescent probe in DMSO (1.0 ml) was added to Hanks-HEPES buffer so as to attain a final concentration of 10.0 μM, and the mixture was subjected to ultrasonication. The culture medium in which PC-12 cells (cloned nerve cells isolated from rat adrenal medulla chrome-philic cytoma) had been cultured at 37° C. on a petri dish was replaced with the fluorescent probe solution, and the cells were incubated at 37° C. for 30 minutes. […] The excitation wavelength was 440 nm and the detection wavelength was 500–530 nm. For comparison, the cells before the treatment with the fluorescence probe were also observed with the fluorescence microscope.
as §4, with “5.0” for “5”, “the fluorescent probe” for “KMG-20”
as §5

The mark [6] stands for this setting: 10 μM acetylcholine (increases calcium level in the cells).
[7] abbreviates: 10.0 μM probe, 37° C. 30 minutes, fluorescence microscope.

For the compound `O=C(O)COc1cc(-c2cc3ccc(C(=O)O)cc3[nH]2)ccc1N(CC(=O)O)CC(=O)O` [mag-indo-1], the “KCa (binding constant to Ca^2+)” value in assay [1] is recorded as 28,570 M^−1. Also, the “KMg (binding constant to Mg^2+)” value in assay [2] was 370.4 M⁻¹. Also, in assay [3], the “KMg/KCa (selectivity to magnesium ion)” value is listed as 0.013.
For `CC(=O)OCOC(=O)c1cc2cc3c4c(c2oc1=O)CCCN4CCC3` [KMG-20, (13-aza-3-oxa-4-oxotetracyclo[7.7.1.0<2,7>.0<13,17>]heptadeca-1(17),2(7),5,8-tetraene-5-ylcarbonyloxy)methyl acetate], in assay [4] (5 μM FCCP (raises free magnesium ion level)), the “Change in fluorescence intensity after addition of FCCP” value is listed as “fluorescence intensity was increased during 1 minute from the addition of FCCP”. In assay [4] (setting [6]), the “Change in fluorescence intensity after addition of acetylcholine” value was “increase of the fluorescence intensity was not observed”. In addition, in assay [4] (10.0 μM probe, 37° C. 30 minutes, excitation 440 nm, detection 500–530 nm), the “Staining / dispersion of the probe in cells” value is “uniformly dispersed and stained the cells; also recorded: uniformly dispersed in the cytoplasm”. For the same compound, in assay [4] (setting [7]), the “Location of the probe in the cell” value is “located in the vicinity of the nucleus”. Also, the “KCa (binding constant to Ca^2+)” value in assay [5] turned out to be 33.3 M⁻¹. In assay [3], the “KMg (binding constant to Mg^2+)” value was determined as 100.0 M⁻¹ and the “KMg/KCa (selectivity to magnesium ion)” value is 3.0.
Regarding `COC(=O)c1cc2cc3c4c(c2oc1=O)C(C)(C)CCN4CCC3(C)C` [KMG-27, methyl-13-aza-10,10,16,16-tetramethyl-3-oxa-4-oxo-tetracyclo[7,7,1,0<2,7>.O<13,17>]heptadeca-1(17),2(7),5,8-tetraene-5-carboxylate], the “KCa (binding constant to Ca^2+)” value in assay [5] is 33.0 M⁻¹. Also, the “KMg (binding constant to Mg^2+)” value in assay [3] was 102.0 M⁻¹. In addition, the “KMg/KCa (selectivity to magnesium ion)” value in assay [3] is on record as 3.09. Moreover, the “Change in fluorescence intensity after addition of FCCP” value with PC-12 cells was “increase in the fluorescent intensity was observed”; with PC-12 cells (listed as Example 4), “fluorescence intensity was increased during 1 minute from the addition of FCCP”. The “Change in fluorescence intensity after addition of acetylcholine” value in the assay with PC-12 cells (setting [6]) is recorded as “increase of the fluorescence intensity was not observed”. Also, the “Staining / dispersion of the probe in cells” value in the assay on PC-12 cells (10.0 μM probe, 37° C. 30 minutes) was “uniformly dispersed in the cells”; in the assay with PC-12 cells (10.0 μM probe, 37° C. 30 minutes, listed as Example 4) it was “uniformly dispersed and stained the cells”. Also, the “Location of the probe in the cell” value in the assay on PC-12 cells (setting [7]) is listed as “located in the vicinity of the nucleus”.
In the case of `O=C([O-])COc1cc(NC(=O)c2ccc3c(c2)C(=O)OC32c3cc(Cl)c([O-])cc3Oc3cc([O-])c(Cl)cc32)ccc1N(CC(=O)[O-])CC(=O)[O-].[K+].[K+].[K+].[K+].[K+]` [Magnesium Green], the “KCa (binding constant to Ca^2+)” value in assay [1] is 166,660 M^−1. In addition, the “KMg (binding constant to Mg^2+)” value in assay [2] is 500.0 M⁻¹. Further, in assay [3], the “KMg/KCa (selectivity to magnesium ion)” value amounted to 0.003.
For the compound `O=C(O)COc1cc2cc(-c3ncc(C(=O)O)o3)oc2cc1N(CC(=O)O)CC(=O)O` [mag-fura-2], in assay [1], the “KCa (binding constant to Ca^2+)” value was 40,000 M^−1. Further, the “KMg (binding constant to Mg^2+)” value in assay [2] is 526.3 M⁻¹. In assay [3], the “KMg/KCa (selectivity to magnesium ion)” value is on record as 0.013.
